Results from PubChem BioAssay (NCI).
Values joined by “and” are separate entries in the source; they are usually repeats but may differ in a detail not shown here. Equal entries are not always repeated.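 Exposure lasted 48 hours, with cells grown in 96-well plates and compounds tested at five concentrations. GI50 = concentration required for 50% inhibition of growth. TGI: total growth inhibition.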 Where a SMILES comes first, the peptide text is derived from it. [ ]: non-standard residue; d: D form. The star is where a group is joined. ξ: configuration not given here. ξD = NC(CC(=O)O)C(=O)O; Boc = CC(C)(C)OC(=O)*; Aib = CC(C)(N)C(=O)O; OBn = c1ccc(CO*)cc1

What was measured:
Assay in all cases: growth of human tumour cells (NCI), 48 h
786-0 renal = system: 786-0 renal
EKVX NSCLC = system: EKVX NSCLC
HL-60(TB) leukemia = system: HL-60(TB) leukemia
HOP-92 NSCLC = system: HOP-92 NSCLC
KM12 colon = system: KM12 colon
MOLT-4 leukemia = system: MOLT-4 leukemia
NCI-H23 lung = system: NCI-H23 lung
NCI-H522 lung = system: NCI-H522 lung
OVCAR-5 ovarian = system: OVCAR-5 ovarian
SF-295 CNS = system: SF-295 CNS
SK-MEL-5 melanoma = system: SK-MEL-5 melanoma
SN12C renal = system: SN12C renal
SNB-75 CNS = system: SNB-75 CNS
UACC-62 melanoma = system: UACC-62 melanoma
NCI/ADR-RES ovarian = system: NCI/ADR-RES ovarian
PC-3 prostate = system: PC-3 prostate
T-47D breast = system: T-47D breast
DU-145 prostate = system: DU-145 prostate

SMILES	TGI (786-0 renal)	TGI (EKVX NSCLC)	TGI (HL-60(TB) leukemia)	TGI (HOP-92 NSCLC)	TGI (KM12 colon)	TGI (MOLT-4 leukemia)	TGI (NCI-H23 lung)	TGI (NCI-H522 lung)	TGI (OVCAR-5 ovarian)	TGI (SF-295 CNS)	TGI (SK-MEL-5 melanoma)	TGI (SN12C renal)	TGI (SNB-75 CNS)	TGI (UACC-62 melanoma)	TGI (NCI/ADR-RES ovarian) [µM]	TGI (PC-3 prostate) [µM]	TGI (T-47D breast) [µM]	TGI (DU-145 prostate) [µM]	GI50 (MOLT-4 leukemia) [µM]	GI50 (SF-295 CNS)
COc1cc([C@@H]2c3cc4c(cc3[C@@H](NCc3ccccc3F)C3COC(=O)[C@@H]32)OCO4)cc(OC)c1O (stereo partly specified)	13.8 µM	45.9 µM	4.26 µM	54.3 µM	18 µM	7.4 µM	7.5 µM	10.2 µM	78.4 µM	> 100 µM	7.86 µM	8.08 µM	42.6 µM	4.43 µM	–	–	–	–	–	–
Cc1nc(C(N)=S)sc1C(=O)CC(=O)C(=O)Nc1ccc(Br)cc1	> 100 µM	> 100 µM	> 100 µM	> 100 µM	> 100 µM	–	> 100 µM	> 100 µM	> 100 µM	> 100 µM	> 100 µM	> 100 µM	> 100 µM	> 100 µM	> 100	> 100	> 100	–	–	–
O=C(C[C@@H]1CCCN2CCCC[C@H]12)N1c2ccccc2Sc2ccc(Cl)cc21	23.1 µM	33.8 µM	36.8 µM	–	27.6 µM	30 µM	29.1 µM	26.9 µM	26.4 µM	36.7 µM	23.9 µM	32.1 µM	33.4 µM	–	29.4	27.2	39.5	28.2	–	–
N=S(c1ccccc1[N+](=O)[O-])c1ccccc1[N+](=O)[O-]	3.93 µM and 4.67 µM	11 µM and 20.8 µM	2.57 µM and 3.39 µM	4.02 µM and 4.39 µM	7.31 µM and 16.7 µM	4.7 µM and 20.4 µM	6.77 µM and 11 µM	1.2 µM and 1.1 µM	7.69 µM and 11.8 µM	6.16 µM and 15.4 µM	3.83 µM and 8.22 µM	2.89 µM and 3.19 µM	20.5 µM and 15.6 µM	9.13 µM and 10.2 µM	–	2.98	0.934	7.38	3.93	2.45 µM and 5.99 µM
CCC1C(NC(=O)OC)C(=O)N1[C@@H](C)c1ccccc1 (stereo partly specified)	> 100 µM	> 100 µM	–	> 100 µM	> 100 µM	> 100 µM	> 100 µM	> 100 µM	> 100 µM	> 100 µM	> 100 µM	> 100 µM	> 100 µM	> 100 µM	> 100	> 100	> 100	> 100	–	–
CC(C)(C)OC(=O)NC(CC(=O)OCc1ccccc1)C(=O)NC(C)(C)C(N)=O (stereo unspecified) (Boc-[ξD](OBn)-[Aib]-NH2)	> 100 µM	> 100 µM	–	> 100 µM	> 100 µM	> 100 µM	> 100 µM	> 100 µM	> 100 µM	> 100 µM	> 100 µM	> 100 µM	> 100 µM	> 100 µM	> 100	> 100	> 100	> 100	–	–
CC(=O)C1C(=O)C(=O)N(c2ccc([N+](=O)[O-])cc2[N+](=O)[O-])C1=O (stereo unspecified)	> 100 µM	> 100 µM	> 100 µM	> 100 µM	> 100 µM	> 100 µM	> 100 µM	> 100 µM	> 100 µM	> 100 µM	> 100 µM	> 100 µM	> 100 µM	> 100 µM	> 100	> 100	–	> 100	–	–
